Measured values taken from patent US20040259851A1, “Methods of administering estrogens and progestins” (priority 2003, published 2004).
Like-named read-outs stand apart in the source and are kept apart here.

How the values were obtained:
menopausal hot flashes = details: cited from earlier work
[1] = Megestrol Acetate in plasma samples by GC/MS; assay type: in vivo; details: human; for concentration at 1 h: 1 h post dosing; for concentration at 2 h: 2 h post dosing; for concentration at 4 h: 4 h post dosing; for concentration at 8 h: 8 h post dosing; for concentration at 12 h: 12 h post dosing; for concentration at 24 h: 24 h post dosing; for concentration at 36 h: 36 h post dosing; for concentration at 48 h: 48 h post dosing; for concentration at 0 h: time 0 h (predose)
Description: A total of 90 plasma samples were analyzed for their content of Megestrol Acetate by GC/MS.
In this study megestrol acetate was utilized and medroxyprogesterone acetate was utilized as an internal standard.
For each sample, 1 mL of human plasma was aliquoted and spiked with 25 μL of the internal standard working solution. In the following, the samples were alkalized and extracted with a toluene/diisopropylether mixture. The resulting extracts were stored in a refrigerator until measurement. Just prior to measurement, the sample extracts were evaporated to dryness and reconstituted in toluene. 2 μL of the resulting solution were injected into the GC/MS system. The gas chromatograph was run in the temperature-programmed mode to achieve improved separation. Positive ions chemical ionization (PICI) was used for mass selective detection. Selected mass/charge ratios were m/z 385.2 for megestrol acetate and m/z 387.2 for the internal standard.
The time measured represents the number of hours passed post dosing. Subjects 2, 4, 6, 8 and 10 all received a 6 mg dose of megestrol acetate. Subjects 1, 3, 5, 7 and 9 all received a 1.5 mg dose of megestrol acetate. […] A third measurement was not possible due to insufficient sample. During the study, 3 series of plasma calibration curves were measured (prevalidation run not considered).

## CC(=O)O[C@]1(C(C)=O)CC[C@H]2[C@@H]3C=C(C)C4=CC(=O)CC[C@]4(C)[C@H]3CC[C@@]21C [megestrol acetate, Pregna-4,6-diene-3,20-dione, 17-(acetyloxy)-6-methyl-]
Menopausal hot flashes; daily dose 20 mg
  decrease of menopausal hot flashes: 80%
Menopausal hot flashes; daily dose 40 mg
  decrease of menopausal hot flashes: 89%
Menopausal hot flashes; daily dose 80 mg
  decrease of menopausal hot flashes: 98%
[1]; 1.5 mg, Sub 1, 1.5 mg dose
  concentration at 1 h: 7.82 ng/mL
  concentration at 2 h: 2.74 ng/mL
  concentration at 4 h: 1.01 ng/mL
  concentration at 8 h: 0.607 ng/mL
  concentration at 12 h: 0.413 ng/mL
  concentration at 24 h: 0.399 ng/mL
  concentration at 36 h: 0.504 ng/mL
  concentration at 48 h: 0.463 ng/mL
  concentration at 0 h: 0.492 ng/mL
[1]; 1.5 mg, Sub 3, 1.5 mg dose
  concentration at 1 h: 9.32 ng/mL
  concentration at 2 h: 5.24 ng/mL
  concentration at 4 h: 3.04 ng/mL
  concentration at 8 h: 2.66 ng/mL
  concentration at 12 h: 1.98 ng/mL
  concentration at 24 h: 1.8 ng/mL
  concentration at 36 h: 1.99 ng/mL
  concentration at 48 h: 1.48 ng/mL
  concentration at 0 h: 1.98 ng/mL
[1]; 1.5 mg, Sub 5, 1.5 mg dose
  concentration at 1 h: 4.98 ng/mL
  concentration at 2 h: 2.75 ng/mL
  concentration at 4 h: 0.959 ng/mL
  concentration at 8 h: 0.521 ng/mL
  concentration at 12 h: 0.353 ng/mL
  concentration at 24 h: 0.344 ng/mL
  concentration at 36 h: 0.409 ng/mL
  concentration at 48 h: 0.267 ng/mL
  concentration at 0 h: 0.426 ng/mL
[1]; 1.5 mg, Sub 7, 1.5 mg dose
  concentration at 1 h: 7.82 ng/mL
  concentration at 2 h: 4.83 ng/mL
  concentration at 4 h: 1.99 ng/mL
  concentration at 8 h: 1.47 ng/mL
  concentration at 12 h: 1.59 ng/mL
  concentration at 24 h: 0.771 ng/mL
  concentration at 36 h: 0.592 ng/mL
  concentration at 48 h: 0.564 ng/mL
  concentration at 0 h: 0.851 ng/mL
[1]; 1.5 mg, Sub 9, 1.5 mg dose
  concentration at 1 h: 14.4 ng/mL
  concentration at 2 h: 9.21 ng/mL
  concentration at 4 h: 4.02 ng/mL
  concentration at 8 h: 1.64 ng/mL
  concentration at 12 h: 1.59 ng/mL
  concentration at 24 h: 1.09 ng/mL
  concentration at 36 h: 1.3 ng/mL
  concentration at 48 h: 1.31 ng/mL
  concentration at 0 h: 1.4 ng/mL
[1]; 6 mg, Sub 2, 6 mg dose
  concentration at 1 h: 32.9 ng/mL
  concentration at 2 h: 28.1 ng/mL
  concentration at 4 h: 9.89 ng/mL
  concentration at 8 h: 6.98 ng/mL
  concentration at 12 h: 5.84 ng/mL
  concentration at 24 h: 4.4 ng/mL
  concentration at 36 h: 5.04 ng/mL
  concentration at 48 h: 3.58 ng/mL
  concentration at 0 h: 6.48 ng/mL
[1]; 6 mg, Sub 4, 6 mg dose
  concentration at 1 h: 37.4 ng/mL
  concentration at 2 h: 18.7 ng/mL
  concentration at 4 h: 7.22 ng/mL
  concentration at 8 h: 4.7 ng/mL
  concentration at 12 h: 3.05 ng/mL
  concentration at 24 h: 2.17 ng/mL
  concentration at 36 h: 3.58 ng/mL
  concentration at 48 h: 2.9 ng/mL
  concentration at 0 h: 4.44 ng/mL
[1]; 6 mg, Sub 6, 6 mg dose
  concentration at 1 h: 44 ng/mL
  concentration at 2 h: 32.1 ng/mL
  concentration at 4 h: 12.6 ng/mL
  concentration at 8 h: 7.61 ng/mL
  concentration at 12 h: 5.8 ng/mL
  concentration at 24 h: 4.04 ng/mL
  concentration at 36 h: 6.58 ng/mL
  concentration at 48 h: 5.65 ng/mL
  concentration at 0 h: 8.58 ng/mL
[1]; 6 mg, Sub 8, 6 mg dose
  concentration at 1 h: 19.5 ng/mL
  concentration at 2 h: 10.6 ng/mL
  concentration at 4 h: 3.68 ng/mL
  concentration at 8 h: 1.41 ng/mL
  concentration at 12 h: 0.908 ng/mL
  concentration at 24 h: 0.459 ng/mL
  concentration at 36 h: 1.34 ng/mL
  concentration at 48 h: 0.796 ng/mL
  concentration at 0 h: < 0.1 ng/mL
[1]; 6 mg, Sub 10, 6 mg dose
  concentration at 1 h: 23.5 ng/mL
  concentration at 2 h: 17.2 ng/mL
  concentration at 4 h: 6.93 ng/mL
  concentration at 8 h: 4.95 ng/mL
  concentration at 12 h: 2.85 ng/mL
  concentration at 24 h: 1.77 ng/mL
  concentration at 36 h: 2.6 ng/mL
  concentration at 48 h: 1.63 ng/mL
